Results as given in patent publication US9493446B2, “Orexin receptor antagonists which are [ortho bi-(hetero-)aryl]-[2-(meta bi-(hetero-)aryl)-pyrrolidin-1-yl]-methanone derivatives” (Actelion Pharmaceuticals Ltd, priority 2012, dated 2016).
pIC50: −log10 of the molar value. Where two headings read alike, the source gives them in different places.

How the values were obtained:
rat [1] = settings: cited from earlier work
fasted hungry rats = fasted hungry rats exposed to food odors; cited from earlier work
mouse = settings: administered chronically; cited from earlier work
rats = settings: cited from earlier work
rat [2] = settings: cited from earlier work; remark: listed apart in the source
[3] = tested on: amyloid precursor protein transgenic mice; settings: after acute sleep restriction, APP transgenic mice; cited from earlier work
humans = settings: primary insomnia; cited from earlier work
rat [4] = settings: cited from earlier work; remark: listed apart in the source
orexin-1 [5] = molecular target: T1, orexin-1 (Homo sapiens (Human), UniProt O43613); experiment: Intracellular calcium measurement (FLIPR), CHO cells expressing human orexin-1 receptor, 3 nM orexin-A; format: cell-based; settings: CHO cells expressing human orexin-1 receptor, FLIPR, 3 nM orexin-A; geometric mean if determined several times; read-out: IC50 OX1
Summary of the method: (§1)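 CHO transfectants were dye-loaded (fluo-4 AM, probenecid) and exposed to antagonist for 120 min ahead of agonist.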

[6] = Measurement of brain and systemic concentration after oral administration; format: in vivo; settings: rat, 3 h after oral administration (100 mg/kg), n=3, male wistar rats;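 on concentration in plasma [P]: unit ng/mL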
Description: Measurement of Brain and Systemic Concentration after Oral Administration:
In order to assess brain penetration, the concentration of the compound is measured in plasma ([P]), and brain ([B]), sampled 3 h (or at different time points) following oral administration (e.g. 100 mg/kg) to male wistar rats. The compounds are formulated e.g. in 100% PEG 400. Samples are collected in the same animal at the same time point (+/−5 min). Blood is sampled from the vena cava caudalis into containers with EDTA as anticoagulant and centrifuged to yield plasma. Brain is sampled after cardiac perfusion of 10 mL NaCl 0.9% and homogenized into one volume of cold phosphate buffer (pH 7.4). All samples are extracted with MeOH and analyzed by LC-MS/MS. Concentrations are determined with the help of calibration curves.

human orexin-2 receptor = human orexin-2 receptor (Homo sapiens (Human), UniProt O43614); experiment: Intracellular calcium measurement (FLIPR), CHO cells expressing human orexin-2 receptor, 3 nM orexin-A; format: cell-based; settings: CHO cells expressing human orexin-2 receptor, FLIPR, 3 nM orexin-A; geometric mean if determined several times; read-out: IC50 OX2
Summary of the method: as §1

Wistar rats = experiment: Sleep effects: EEG, EMG and behavioural indices of alertness by radiotelemetry; format: in vivo; settings: effects analyzed over 12 hours, compared to vehicle controls
Description: Sleep Effects: EEG, EMG and Behavioural Indices of Alertness Recorded by Radiotelemetry In Vivo in Wistar Rats.
Electroencephalography (EEG) and Electromyography (EMG) signals were measured by telemetry using TL11M2-F20-EET miniature radiotelemetric implants (Data Science Int.) with two pairs of differential leads.
Surgical implantation was performed under general anesthesia with Ketamin/Xylazin, for cranial placement of one differential pair of EEG electrodes and one pair of EMG leads inserted in either side of the muscles of the neck. After surgery, rats recovered in a thermoregulated chamber and received analgesic treatment with subcutaneous buprenorphine twice a day for 2 d. They were then housed individually and allowed to recover for a minimum of 2 weeks. Thereafter, rats—in their home cage—were placed in a ventilated sound-attenuating box, on a 12-h light/12-h dark cycle, for acclimatization before continuous EEG/EMG recordings started. The telemetric technology that we used in this study allows accurate and stress-free acquisition of biosignals in rats placed in their familiar home cage environment, with no recording leads restricting their movements. Variables analyzed included four different stages of vigilance and sleep, spontaneous activity in the home cage and body temperature. Sleep and wake stages were evaluated using a rodent scoring software (Somnologica Science) directly processing electrical biosignals on 10 s contiguous epochs. The scoring is based on frequency estimation for EEG and amplitude discrimination for EMG and locomotor activity. Using these measurements, the software determines the probability that all components within each epoch best represent active waking (AW), quiet waking (QW), non-REM-sleep (NREM) or REM-sleep (REM). The percentage of total time spent in AW, QW, NREM- and REM-sleep was calculated per 12 h light or dark period. The latency to the onset of the first significant NREM- and REM-sleep episodes and the number and duration of those episodes were also calculated. AW, QW, NREM- and REM-sleep, home cage activity and body temperature were measured at baseline for at least one total circadian cycle (12 h-night, 12 h-day) before a test compound was administered. […] All variables were subsequently recorded for 12 h following administration of the orexin receptor antagonist.

rodents [7] = settings: conditioned reinforcer; cited from earlier work
rodents [8] = settings: cited from earlier work
orexin-1 [9] = molecular target: T1, orexin-1; settings: cited from earlier work
[10] = brain, read-out: concentration in brain [B]
[11] = plasma, read-out: concentration in plasma [P]

Sequence of human orexin-2 receptor (O43614 whole entry): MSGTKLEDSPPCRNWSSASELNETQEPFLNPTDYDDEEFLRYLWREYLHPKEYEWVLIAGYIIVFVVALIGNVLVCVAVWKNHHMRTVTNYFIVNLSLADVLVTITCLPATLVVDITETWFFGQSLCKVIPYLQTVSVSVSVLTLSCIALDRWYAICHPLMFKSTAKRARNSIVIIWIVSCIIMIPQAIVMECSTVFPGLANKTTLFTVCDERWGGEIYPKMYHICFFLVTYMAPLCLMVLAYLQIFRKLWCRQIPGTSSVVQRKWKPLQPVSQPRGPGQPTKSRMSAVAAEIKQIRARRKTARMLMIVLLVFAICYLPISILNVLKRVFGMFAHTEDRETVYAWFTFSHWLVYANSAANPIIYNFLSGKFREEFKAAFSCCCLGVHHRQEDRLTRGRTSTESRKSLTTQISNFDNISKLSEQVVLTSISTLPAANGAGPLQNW
T1 sequence (O43613 whole entry): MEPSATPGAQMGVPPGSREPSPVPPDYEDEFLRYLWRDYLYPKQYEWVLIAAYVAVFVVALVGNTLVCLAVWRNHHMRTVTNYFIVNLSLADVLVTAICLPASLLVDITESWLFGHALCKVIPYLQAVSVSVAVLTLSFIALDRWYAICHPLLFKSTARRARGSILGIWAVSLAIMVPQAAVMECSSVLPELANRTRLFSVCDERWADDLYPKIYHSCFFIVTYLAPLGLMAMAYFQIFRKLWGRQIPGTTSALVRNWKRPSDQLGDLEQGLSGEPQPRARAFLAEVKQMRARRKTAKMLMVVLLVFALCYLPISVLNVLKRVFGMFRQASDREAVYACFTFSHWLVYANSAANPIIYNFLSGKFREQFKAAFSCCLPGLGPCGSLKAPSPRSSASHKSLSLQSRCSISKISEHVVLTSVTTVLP

Structure (SMILES)	pIC50 (orexin-1 [5])	concentration at 3 h [6, 10] [ng/g]	concentration at 3 h [6, 11] [ng/mL]	pIC50 (human orexin-2 receptor)	effect on NREM sleep (Wistar rats; 100 mg/kg po)	effect on REM sleep (Wistar rats; 100 mg/kg po)	effect on active wake (Wistar rats; 100 mg/kg po) [%]	effect on home cage activity (Wistar rats; 100 mg/kg po) [%]	other results
CNC(=O)[C@@H](c1ccccc1)N1CCc2cc(OC)c(OC)cc2[C@@H]1CCc1ccc(C(F)(F)F)cc1 [(2R)-2-{(1S)-6,7-dimethoxy-1-[2-(4-trifluoromethyl-phenyl)-ethyl]-3,4-dihydro-1H-isoquinolin-2-yl}-N-methyl-2-phenyl-acetamide]									pharmacological activity in nicotine self-administration (rat [1]): displayed pharmacological activity; natural activation induced by orexin A (fasted hungry rats): attenuate the natural activation induced by orexin A; antidepressant-like activity (mouse): induce antidepressant-like activity; cardiovascular responses to conditioned fear and novelty exposure (rats): attenuated cardiovascular responses to conditioned fear and novelty exposure; activity in fear-potentiated startle paradigm (rat [2]): active; brain levels of amyloid-beta and plaque deposition [3]: decreased brain levels of amyloid-beta (Aβ) as well as Aβ plaque deposition; clinical efficacy (humans): showed clinical efficacy; alertness (active wake and locomotion) (rat [4]): decrease alertness; time spent in REM and NREM sleep (rat [4]): dose-dependently increase the time spent in both REM and NREM sleep
Cn1c(SCC(=O)N2CCC[C@H]2C(=O)Nc2ccccc2-c2ccccc2)nc2ccccc21 [N-Biphenyl-2-yl-1-{[(1-methyl-1H-benzimidazol-2-yl)sulfanyl]acetyl}-L-prolinamide]									nicotine-reinstatement (rodents [7]): inhibited nicotine-reinstatement for a conditioned reinforcer; behavioral and molecular changes induced by repeated amphetamine (rodents [8]): reduced behavioral (locomotor sensitization) and molecular (transcriptional responses) changes
COc1cc(C(=O)N2CCC[C@H]2c2nc(-c3ccccc3OC(F)(F)F)no2)c(-n2nccn2)cc1C [Example 154, (5-Methoxy-4-methyl-2-[1,2,3]triazol-2-yl-phenyl)-{(S)-2-[3-(2-trifluoromethoxy-phenyl)-[1,2,4]oxadiazol-5-yl]-pyrrolidin-1-yl}-methanone]	7.52	3250	2240	8.70	+7.3%	+0.9%	−13.9	−26.8	
Cc1nc(C(=O)N2CCC[C@H]2Cc2nnc(-c3ccccc3)o2)c(-c2ccccc2F)s1 [1-(5-(2-fluoro-phenyl)-2-methyl-thiazol-4-yl)-1-[(S)-2-(5-phenyl-[1,3,4]oxadiazol-2-ylmethyl)-pyrrolidin-1-yl)-methanone]									orexin receptor selectivity (orexin-1 [9]): highly orexin-1 selective

Continued, in another order:

pIC50 (orexin-1 [5])	concentration at 3 h [6, 10] [ng/g]	concentration at 3 h [6, 11] [ng/mL]	pIC50 (human orexin-2 receptor)	Structure (SMILES)	effect on NREM sleep (Wistar rats; 100 mg/kg po)	effect on REM sleep (Wistar rats; 100 mg/kg po)	effect on active wake (Wistar rats; 100 mg/kg po) [%]	effect on home cage activity (Wistar rats; 100 mg/kg po) [%]	other results
8.30	1120	1070	8.22	C[C@@]1(c2nnc(-c3ccccc3OC(F)(F)F)[nH]2)CCCN1C(=O)c1ccc(Cl)cc1-n1nccn1 [Example 544, (4-Chloro-2-[1,2,3]triazol-2-yl-phenyl)-{(S)-2-methyl-2-[5-(2-trifluoromethoxy-phenyl)-4H-[1,2,4]triazol-3-yl]-pyrrolidin-1-yl}-methanone]					effect on NREM sleep (Wistar rats; 30 mg/kg po): +19.4%; effect on REM sleep (Wistar rats; 30 mg/kg po): +5.6%; effect on active wake (Wistar rats; 30 mg/kg po): −9.6%; effect on home cage activity (Wistar rats; 30 mg/kg po): −18.5%
7.89	483	309	8.52	Cc1cc(C(=O)N2CCC[C@H]2c2nc(-c3cccc(Cl)c3C)no2)c(-n2nccn2)cc1C [Example 95, {(S)-2-[3-(3-Chloro-2-methyl-phenyl)-[1,2,4]oxadiazol-5-yl]-pyrrolidin-1-yl}-(4,5-dimethyl-2-[1,2,3]triazol-2-yl-phenyl)-methanone]	+11.2%	+7.8%	−7.3	−20.3	
7.66	1580	1760	8.40	COc1cc(C(=O)N2CCC[C@H]2c2noc(-c3ccccc3OC(F)(F)F)n2)c(-n2nccn2)cc1C [Example 308, (5-Methoxy-4-methyl-2-[1,2,3]triazol-2-yl-phenyl)-{(S)-2-[5-(2-trifluoromethoxy-phenyl)-[1,2,4]oxadiazol-3-yl]-pyrrolidin-1-yl}-methanone]	+14.3%	+35.2%	−24.0	−41.4	
